Here are results for four molecules from publication PMC4906375, “Contribution of Amphipathicity and Hydrophobicity to the Antimicrobial Activity and Cytotoxicity of β-Hairpin Peptides” (ACS Infectious Diseases, 2016).

≈ marks a conversion by molar mass, not a printed value. Read-outs that look alike come from different tables or passages of the source. Residues, ends and D or L forms follow the SMILES beside them.

The test system of data set [1] is E. coli ATCC 700926 (K12). It counts as cell-based, Escherichia coli. The note with it: ATCC 700926. The method, then:
(§1) Both antibacterial and antifungal MIC assays were performed by a broth microdilution plate based method as per CLSI guidelines for antimicrobial susceptibility testing.[53],[54] […] Full assay details are included in the Supporting Information with a full list of strains tested in Table S1.
(§2) Antibacterial assay (Minimum Inhibitory Concentration [MIC]).
(§3) MIC assay was performed by a broth microdilution plate based method as per CLSI guidelines for antimicrobial susceptibility testing of aerobic bacteria.1 Compounds were prepared at 1.28 mg/mL solution in water. The tested strains, Table S1, were cultured in Luria broth (LB) (In Vitro Technologies, USB75852), at 37 °C overnight. A sample of culture was then diluted 40Pfold in fresh Muller Hinton broth (MHB) (Bacto laboratories, 211443) and incubated at 37 °C for 1.5P2 h. The compounds were serially diluted twoPfold across the wells, with compound concentrations ranging from 0.015 µg/mL to 512 µg/mL, plated in duplicate. The resultant midPlog phase cultures were diluted to the final concentration of 1×10^6 CFU/mL, then 50 µL was added to each well of the compoundP containing 96Pwell plates (Corning 3641, NonPbinding Surface [NBS]), giving a final compound concentration range of 0.008 µg/mL to 256 µg/mL and 5x10^5 CFU/mL. All the plates were covered and incubated at 37 °C for 18 h. MICs were determined visually, being defined as the lowest concentration showing no visible growth. Resazurin was added at 0.001% final concentration to each well and incubated for 2 h before MICs were rePread for confirmation using the colour change from blue to pink to indicate wells containing viable cells. The resazurin assay was added in some wells where some form of precipitate was present in otherwise clear wells, making it difficult to ascertain which wells had visible […]
(§4) Antifungal assay (Minimum Inhibitory Concentration [MIC]). MIC assay was performed by a broth microdilution plate based method as per CLSI guidelines for antimicrobial susceptibility testing.2 Fungi strains, Table S1, were cultured for 3 days on Yeast ExtractPPeptone Dextrose (YPD) (SigmaPAldrich, Y1500) agar at 30 °C. A yeast suspension of 1x10^6 to 5x10^6 CFU/mL was prepared from five colonies. These stock suspensions were diluted with Yeast Nitrogen Base (YNB) (Becton Dickinson, 233520) broth to a final concentration of 2.5 ×10^3 CFU/mL. All samples, compounds and standards were plated in 96Pwell plates (Corning 3641, NonPbinding Surface [NBS]), by adding 10 µL of 1.28 mg/mL stock solution to each well and 90 µL of media. Then, the samples were serial diluted (1:2) in 12 concentrations across the plate. The standard antifungal ranged from 256

Data set [2] concerns E. coli ATCC 25922 (control strain). It counts as cell-based, Escherichia coli. Particulars: ATCC 25922. The method, then: as §1, §2, §3, §4
The subject of data set [3] is E. coli MB 4902 (ΔlpxC). It counts as cell-based, Escherichia coli. The note with it: n = 4. As to the method: as §1, §2, §3, §4
Data set [4] is described as follows: Cytotoxicity, Alamar Blue (resazurin) assay. It is filed as cell-based, human. Particulars: human. As to the method: Cytotoxicity to HEK293 and HepG2 cells was determined using the Alamar Blue (resazurin) assay,[55],[56] with 24 h of incubation and either 1 or 10% serum concentration. Full assay details are included in the Supporting Information.
Cytotoxicity. Cytotoxicity to HEK293 and HepG2 cells was determined using the Alamar Blue (resazurin) assay,3, 4 For the assays supplemented with 1 % FBS as final concentration the cells were seeded one day prior to the assay (3,000 per 20 µL for HEK293 and 4,000 per 20 µL for HepG2) with DMEM + 2 % FBS. The compounds were prepared as described below, using DMEM with no FBS instead to give the final FBS concentration of 1 %.
The highest concentration the compounds were tested was 300 µg/mL. A dilution series of 1:3 fold steps in DMEM (GIBCOPInvitrogen, cat. no. 11995P073) + 10 % FBS was created (concentration range of 600 µg/mL – 0.28 µg/mL), and 20 µL of these 2x concentrated compound dilutions were added in duplicates to wells of a black wall, clear bottom 384Pwells cell culture plate. For the assays with 1 % FBS the compounds in 0 % FBS were added to the existing cell plates in 2 % FBS. 200 µM Tamoxifen (Sigma T5648) served as negative control and in addition a serial dilution of tamoxifen, starting at 200 µM (74 µg/mL), was included as a dose response control (1 in 2 dilution series for tamoxifen). For the assay with 10 % FBS, HepG2 cells were seeded at 5000 cells per well, in a volume of 20 µL in DMEM medium + 10 % of FBS and added to the 20 µL of compound solution (total volume of 40 µL), resulting in a final compound concentration range of 300 µg/mL to 0.14 µg/mL.
Cells were incubated together with the compounds for 20 h at 37 °C, 5 % CO2.
After the incubation, 5 µL of 100 µM (25 µg/mL) resazurin dissolved in PBS (final concentration was approximately 11 µM) was added to each well. The plates were then incubated for 3 h at 37 °C, 5 % CO2. The fluorescence intensity was read using the TECAN Infinite M1000 PRO with excitation/emission 560/590. The data was analysed by Graph Pad Prism software. Results are presented as the average percentage of control ± SD for each set of duplicate wells using the following equation: Cell survival % = (FISAMPLE – FINegative/FIUNTREATED –FINegative)*100. (100 µg/mL tamoxifen was set as 0 % survival, media
(The colour change of resazurin is a common sign of viable cells or microbes.)

For data set [5], the system named is E. coli ATCC 25922 cytoplasmic membrane. As to the kind of experiment: Inner membrane permeability measured by SYTOX green fluorescence emission. The note with it: for permeabilisation of the E. coli cytoplasmic membrane at lethal concentrations: SYTOX green, E. coli ATCC 25922, 1 h.
For data set [6], the system named is P. aeruginosa ATCC 27853. It counts as cell-based, Pseudomonas aeruginosa. Particulars: ATCC 27853. As to the method: as §1, §2, §3, §4
Where [7] appears, read: HEK293 cells, HEK293, 1% FBS, read-out: cytotoxicity HEK293 1% FBS.
Setting [8] is: HEK293 cells, HEK293, 10% FBS, read-out: cytotoxicity HEK293 10% FBS.
The mark [9] stands for this setting: HepG2 cells, HepG2, 1% FBS, read-out: cytotoxicity HepG2 1% FBS.
[10] abbreviates: HepG2 cells, HepG2, 10% FBS, read-out: cytotoxicity HepG2 10% FBS.

In the case of `CC(C)[C@@H]1NC(=O)CNC(=O)[C@H](CC(N)=O)NC(=O)[C@H](CCCNC(=N)N)NC(=O)[C@H](Cc2ccc(O)cc2)NC(=O)[C@H](C(C)C)NC(=O)[C@@H]2CSSC[C@H](NC(=O)[C@H](C(C)C)NC(=O)[C@H](CCCNC(=N)N)NC1=O)C(=O)N[C@@H](Cc1ccc(O)cc1)C(=O)N[C@@H](CCCNC(=N)N)C(=O)N[C@@H](CCCNC(=N)N)C(=O)N[C@H](C(=O)N[C@@H](CC(N)=O)C(=O)O)CSSC[C@H](NC(=O)[C@H](Cc1ccccc1)NC(=O)CN)C(=O)N[C@@H](Cc1c[nH]c3ccccc13)C(=O)N[C@@H](Cc1ccc(O)cc1)C(=O)N[C@@H](C(C)C)C(=O)N2` [arenicin-3] (HELM PEPTIDE1{G.F.C.W.Y.V.C.V.Y.R.N.G.V.R.V.C.Y.R.R.C.N}$PEPTIDE1,PEPTIDE1,3:R3-20:R3|PEPTIDE1,PEPTIDE1,7:R3-16:R3$$$V2.0), the MIC amounted to 0.25 mg/L (≈ 0.0957 µM) in data set [1], 0.5 mg/L (≈ 0.191 µM) in data set [2], 0.125 mg/L (≈ 0.0478 µM) in data set [3] and 1 mg/L (≈ 0.383 µM) in data set [6]. Moreover, the CC50 at 24 h in data set [4] (setting [7]) was 105 ± 1.8 mg/L (≈ 40 µM); in data set [4] (setting [8]), > 300 mg/L; in data set [4] (setting [9]) it was 95.2 ± 4.1 mg/L (≈ 36.4 µM); in data set [4] (setting [10]) it was > 300 mg/L. For the same molecule, the “permeabilisation of the E. coli cytoplasmic membrane at lethal concentrations” value (shortened to “permeabilisation”) in data set [5] is given as “permeabilise”.

`CC(C)[C@@H]1NC(=O)[C@H](CCCNC(=N)N)NC(=O)[C@H](Cc2ccccc2)NC(=O)[C@@H](NC(=O)[C@H](Cc2c[nH]c3ccccc23)NC(=O)[C@H](CCCNC(=N)N)NC(=O)[C@@H](N)CCCNC(=N)N)CSSC[C@@H](C(=O)N[C@@H](CCCNC(=N)N)C(N)=O)NC(=O)[C@H](CCCCN)NC(=O)[C@H](CCCNC(=N)N)NC(=O)[C@H](Cc2ccc(O)cc2)NC(=O)[C@@H]2CSSC[C@H](NC1=O)C(=O)N[C@@H](Cc1ccc(O)cc1)C(=O)N[C@@H](CCCNC(=N)N)C(=O)NCC(=O)N[C@@H](Cc1ccccc1)C(=O)N2` [polyphemusin-1] (HELM PEPTIDE1{R.R.W.C.F.R.V.C.Y.R.G.F.C.Y.R.K.C.R.[am]}$PEPTIDE1,PEPTIDE1,4:R3-17:R3|PEPTIDE1,PEPTIDE1,8:R3-13:R3$$$V2.0): the MIC in data set [1] was 0.06 mg/L (≈ 0.0244 µM); in data set [2], 0.5 mg/L (≈ 0.204 µM); in data set [3], 0.03 mg/L (≈ 0.0122 µM); in data set [6], 2 mg/L (≈ 0.815 µM). Besides, the CC50 at 24 h in data set [4] (setting [7]) is 36.6 ± 1.4 mg/L (≈ 14.9 µM); in data set [4] (setting [8]), 188.5 ± 1.1 mg/L (≈ 76.8 µM); in data set [4] (setting [9]), 36.5 ± 8.6 mg/L (≈ 14.9 µM); in data set [4] (setting [10]) it was 254 ± 14.2 mg/L (≈ 104 µM). In addition, the “permeabilisation” value in data set [5] is given as “permeabilise”. Further, the “permeabilization concentration relative to MIC” value in data set [5] (same E. coli ATCC 25922 strain) is on record as “lower concentration than their MIC”.

Turning to `[H][C@]12CSSC[C@]([H])(NC(=O)[C@]([H])([C@@H](C)CC)NC(=O)CNC(=O)[C@H](CCCNC(=N)N)NC(=O)[C@H](Cc3ccc(O)cc3)NC1=O)C(=O)N[C@@H](Cc1ccc(O)cc1)C(=O)N[C@@H](CCCNC(=N)N)C(=O)N[C@@H](CCCNC(=N)N)C(=O)N[C@H](C(=O)N[C@@H](CCCNC(=N)N)C(N)=O)CSSC[C@H](NC(=O)[C@H](Cc1c[nH]c3ccccc13)NC(=O)[C@@H](N)CCCCN)C(=O)N[C@@H](Cc1ccccc1)C(=O)N[C@@H](CCCNC(=N)N)C(=O)N[C@@H](C(C)C)C(=O)N2` [tachyplesin-1] (HELM PEPTIDE1{K.W.C.F.R.V.C.Y.R.G.I.C.Y.R.R.C.R.[am]}$PEPTIDE1,PEPTIDE1,3:R3-16:R3|PEPTIDE1,PEPTIDE1,7:R3-12:R3$$$V2.0), the MIC in data set [1] turned out to be 0.03 mg/L (≈ 0.0133 µM); in data set [2] it was 0.06 mg/L (≈ 0.0265 µM); in data set [3] it was 0.016 mg/L (≈ 0.00707 µM); in data set [6], 0.25 mg/L (≈ 0.11 µM). Moreover, the CC50 at 24 h in data set [4] (setting [7]) is 94.7 ± 1.1 mg/L (≈ 41.8 µM); in data set [4] (setting [8]), > 300 mg/L; in data set [4] (setting [9]), 65.7 ± 1.5 mg/L (≈ 29 µM); in data set [4] (setting [10]), > 300 mg/L. The “permeabilisation” value in data set [5] was “permeabilise”.

`CC[C@H](C)[C@H](NC(=O)[C@@H](NC(=O)[C@@H]1CCCN1C(=O)[C@@H](NC(=O)[C@@H]1CCCN1C(=O)[C@H](CCCCN)NC(=O)[C@H](CCCCN)NC(=O)[C@H](CO)NC(=O)CN)C(C)C)[C@@H](C)CC)C(=O)N[C@@H](Cc1ccc(O)cc1)C(=O)N[C@H]1CSSC[C@@H](C(=O)N[C@@H](CCC(N)=O)C(=O)N[C@@H](CCCNC(=N)N)C(=O)N[C@@H](CCSC)C(N)=O)NC(=O)[C@H](CCCCN)NC(=O)CNC(=O)[C@H]([C@@H](C)O)NC(=O)[C@H](CCCNC(=N)N)NC(=O)[C@H](CCCNC(=N)N)NC(=O)[C@H](CC(N)=O)NC1=O` [thanatin]: the MIC is 8 mg/L (≈ 3.29 µM) in data set [1], 8 mg/L (≈ 3.29 µM) in data set [2], 2 mg/L (≈ 0.822 µM) in data set [3] and 256 mg/L (≈ 105 µM) in data set [6]. For the same molecule, the CC50 at 24 h in data set [4] (setting [7]), in data set [4] (setting [8]), in data set [4] (setting [9]) and in data set [4] (setting [10]) was > 300 mg/L in each case. The “permeabilisation” value in data set [5] was “does not permeabilise”.

For orientation: MIC means the lowest concentration that inhibits growth of the organism.
